Source: patent publication US12698279B2, “Polymorphs of a hydrochloride salt of PN6047” (Pharmnovo AB, priority 2020, dated 2026)
Values joined by “and” are separate entries in the source; they are usually repeats but may differ in a detail not shown here. Equal values may be shown once. “Also recorded” adds a separate entry of the source. Read-outs that look alike come from different tables or passages of the source.

Columns and labels:
[1] = Bioavailability study in rats; format: in vivo; conditions: male, Wistar, blood, rat, single dose, vs 1 mg/kg intravenous, read-out: Bioavailability (Fabs)
Experimental: Male Wistar rats were used. Six groups of four animals each were used. Two groups were administered a single intravenous dose of 1 mg/kg of the free base or the HCl2 salt, one group was administered a single oral dose of 3 mg/kg of the free base, and three groups were administered a single oral dose of 3, 10 or 50 mg/kg of the HCl2 salt. Blood samples were collected after 0.25, 0.5, 1, 2, 4, 6, 8 and 24 hours following intravenous administration, and after 0.083, 0.25, 0.5, 1, 2, 4, 6, 8 and 24 hours following oral administration. The samples were analyzed using an LC/MS/MS system. The bioavailability (Fabs) is shown in Table 7 and was calculated as follows: […]

[2] = Dynamic vapour sorption (DVS) hygroscopicity; format: physicochemical; conditions: for hygroscopicity (classification as per the European Pharmacopoeia) / water uptake: 25° C./80% RH; for form by HT-XRPD after the DVS cycle: sorption-desorption-sorption 40-95-0-45% RH
Experimental: Analyses were performed on a DVS-1 system from Surface Measurement Systems (London, UK). Weight equilibration per step was set at dm/dt<0.002 for a minimum of 1 hour or a maximum of 6 hours. The sample was subjected to a sorption-desorption-sorption cycle running from 40 to 95 to 0 to 45% RH, at a constant temperature of 25° C. One cycle consisted of 20 steps, those between 0 and 90% RH were taken in 10% RH each. Afterwards the sample was measured by HT-XRPD.
Forms HCl2 and HCl3 were subjected to DVS measurements to determine the hygroscopicity of these two forms. The material initially took up water slowly with increasing relative humidity (RH) up to about 90% RH. The change in mass was approximately 3.3%, corresponding to about 1 molecule of water per molecule of PN6047. […] The material was then gradually dried from 95 to 0% RH in steps of 10% RH. The corresponding mass change upon drying was different than the initial mass increase upon hydration. Finally, from 0 to 40% RH, the water uptake proceeded in the same way as in the preceding dehydration step. […] It is believed that the uptake of the 2 additional molecules of water may have led to a change from form HCl2 to form HCl3.
The material gradually took up water with increasing relative humidity (RH) up to 95% RH. […] The material was then gradually dried from 95 to 0% RH in steps of 10% RH. The corresponding mass change upon drying was approximately the same as the initial mass increase upon hydration. Finally, from 0 to 40% RH, the water uptake proceeded in the same way as the preceding dehydration step.

[3] = Incubation at high humidity or under vacuum, form by XRPD; format: physicochemical; conditions: 2 days
Experimental: To further understand the hygroscopic nature of form HCl2, a sample of the material was incubated at 85% RH at room temperature for 2 days.
A sample of Form HCl3 was further incubated at 50° C./1 mbar for 2 days to determine whether conversion to Form HCl2 would take place.

[4] = Solid-state stability study (XRPD, TGA, LCMS); format: physicochemical; conditions: for LCMS API / TGA mass loss / XRPD: solid state
Experimental: The solid-state stability of Form HCl2 was determined by incubating samples of approximately 18 mg at different conditions (temperature and relative humidity). After 1 week and 4 weeks, the samples were analyzed by XRPD to determine the polymorphic form, by TGA to determine the mass loss upon heating and by LCMS to determine the API purity. The experimental details and results are described in Table 6.

[5] = Solution stability study in saline (LCMS); format: physicochemical
Experimental: Experiments were performed in saline (0.9% NaCl in water). Two stock solutions of Form HCl2 in saline were prepared, one with a concentration of 10 mg/mL and one with a concentration of 100 mg/mL. The 10 mg/mL stock solution was prepared by dissolving 56 mg of material in 5 mL of saline. The 100 mg/mL stock solution was prepared by dissolving 196.2 mg of material in 1.75 mL saline. For each experiment involving 10 mg/mL, 0.5 mL of stock solution was transferred to an HPLC vial whereas for each experiment involving 100 mg/mL, 0.15 mL of stock solution was transferred to an HPLC vial. The HPLC vials were closed with a screw cap and placed in a Crystal16™ apparatus and incubated at different temperatures.
After the incubation time, the samples were diluted with acetonitrile/water 1:1 (v/v) and measured by LCMS to determine the API peak area.

[6] = Solubility in water at pH 7; format: physicochemical
Experimental: For instance, whereas the free base only sparingly dissolves in water at pH 7 (<1 mg/mL), Forms HCl2 and HCl3 are highly soluble in water at the same pH (>100 mg/mL). The higher solubility of the HCl salt allows continued investigation of the compound at higher concentrations, which is advantageous e.g. in toxicology studies. […] It is expected that the increased bioavailability (and thus the increased exposure) of the HCl salt may lead to an improved efficacy of PN6047 in the treatment of pain and other indications as mentioned herein. Possibly, the increased bioavailability may allow the HCl salt to be administered in substantially lower doses than the free base. The unexpected increase in bioavailability of the HCl salt may also enable the use of sustained release formulations of the compound.

Structure (SMILES): CN(C)C(=O)c1ccc(C(=C2CCN(Cc3cncs3)CC2)c2cccc(C(N)=O)c2)cc1 [Form HCl2, 4-[(3-carbamoylphenyl)[1-(1,3-thiazol-5-ylmethyl)piperidin-4-ylidene]methyl]-N,N-dimethylbenzamide]
- bioavailability ([1]; oral 3 mg/kg): 24%
- bioavailability ([1]; oral 10 mg/kg): 35.5%
- bioavailability ([1]; oral 50 mg/kg): 35% and 34.6%
- relative humidity at which the form absorbs water and transforms into Form HCl3 [2]: > 85 % RH
- relative humidity up to which the form is believed stable [2]: up to 85 % RH
- mass increase ([2]; DVS, 25° C., from 90 to 95% RH): 10.0%
- change in mass ([2]; DVS, 25° C., increasing RH up to about 90% RH): approximately 3.3%
- hygroscopicity (classification as per the European Pharmacopoeia) ([2]; DVS): moderate hygroscopicity
- water uptake ([2]; DVS): approximately 2.2%
- hygroscopicity (classification as per the European Pharmacopoeia) ([2]; DVS, listed as form HCl2): moderately hygroscopic
- water uptake ([2]; DVS, listed as form HCl2): approximately 2.2%
- form by HT-XRPD after the DVS cycle ([2]; 25° C., listed as form HCl2): conversion had taken place from form HCl2 to form HCl3
- form by XRPD after incubation ([3]; 85% RH, room temperature): conversion into form HCl3 had taken place
- time physically stable ([4]; 25° C./60% RH, 40° C./75% RH and 60° C./38% RH): ≥ 4 weeks
- LCMS API ([4]; 1 week, 25° C./60% RH): 100 area %
- TGA mass loss ([4]; 1 week, 25° C./60% RH): 1.8 wt %
- XRPD ([4]; 1 week, 25° C./60% RH): HCl2
- LCMS API ([4]; 1 week, 40° C./75% RH): 100 area %
- TGA mass loss ([4]; 1 week, 40° C./75% RH): 1.9 wt %
- XRPD ([4]; 1 week, 40° C./75% RH): HCl2
- LCMS API ([4]; 1 week, 60° C./38% RH): 100 area %
- TGA mass loss ([4]; 1 week, 60° C./38% RH): 1.9 wt %
- XRPD ([4]; 1 week, 60° C./38% RH): HCl2
- LCMS API ([4]; 4 weeks, 25° C./60% RH): 100 area %
- TGA mass loss ([4]; 4 weeks, 25° C./60% RH): 1.5 wt %
- XRPD ([4]; 4 weeks, 25° C./60% RH): HCl2
- LCMS API ([4]; 4 weeks, 40° C./75% RH): 100 area %
- TGA mass loss ([4]; 4 weeks, 40° C./75% RH): 1.6 wt %
- XRPD ([4]; 4 weeks, 40° C./75% RH): HCl2
- LCMS API ([4]; 4 weeks, 60° C./38% RH): 100 area %
- TGA mass loss ([4]; 4 weeks, 60° C./38% RH): 1.9 wt %
- XRPD ([4]; 4 weeks, 60° C./38% RH): HCl2
- LCMS API ([4]; incubation time 0): 100 area %
- TGA mass loss ([4]; incubation time 0): 1.0 wt %
- XRPD ([4]; incubation time 0): HCl2
- time chemically stable in saline [5]: up to 1 week
- LCMS API ([5]; 10 mg/mL, 5° C., 3 d): 99.9 area %
- LCMS API ([5]; 10 mg/mL, 5° C., 4 d): 99.9 area %
- LCMS API ([5]; 10 mg/mL, 5° C., 7 d): 99.9 area %
- LCMS API ([5]; 10 mg/mL, 25° C., 0 d): 99.9 area %
- LCMS API ([5]; 10 mg/mL, 25° C., 3 d): 99.9 area %
- LCMS API ([5]; 10 mg/mL, 25° C., 4 d): 99.9 area %
- LCMS API ([5]; 10 mg/mL, 25° C., 7 d): 99.9 area %
- LCMS API ([5]; 10 mg/mL, 40° C., 3 d): 99.9 area %
- LCMS API ([5]; 10 mg/mL, 40° C., 4 d): 99.9 area %
- LCMS API ([5]; 10 mg/mL, 40° C., 7 d): 99.9 area %
- LCMS API ([5]; 100 mg/mL, 5° C., 3 d): 99.9 area %
- LCMS API ([5]; 100 mg/mL, 5° C., 4 d): 99.9 area %
- LCMS API ([5]; 100 mg/mL, 5° C., 7 d): 99.9 area %
- LCMS API ([5]; 100 mg/mL, 25° C., 0 d): 99.9 area %
- LCMS API ([5]; 100 mg/mL, 25° C., 3 d): 99.9 area %
- LCMS API ([5]; 100 mg/mL, 25° C., 4 d): 99.9 area %
- LCMS API ([5]; 100 mg/mL, 25° C., 7 d): 99.9 area %
- LCMS API ([5]; 100 mg/mL, 40° C., 3 d): 99.9 area %
- LCMS API ([5]; 100 mg/mL, 40° C., 4 d): 99.9 area %
- LCMS API ([5]; 100 mg/mL, 40° C., 7 d): 100.0 area %

Structure (SMILES): CN(C)C(=O)c1ccc(C(=C2CCN(Cc3cncs3)CC2)c2cccc(C(N)=O)c2)cc1 [Form HCl3, 4-[(3-carbamoylphenyl)[1-(1,3-thiazol-5-ylmethyl)piperidin-4-ylidene]methyl]-N,N-dimethylbenzamide]
- hygroscopicity (classification as per the European Pharmacopoeia) ([2]; DVS, listed as form HCl3): moderately hygroscopic
- water uptake ([2]; DVS, listed as form HCl3): approximately 8.0%
- form by HT-XRPD after the DVS cycle ([2]; 25° C., listed as form HCl3): form HCl3 was still present
- form after drying ([3]; 50° C./1 mbar): poorly crystalline phase of Form HCl3; also recorded: less crystalline phase of Form HCl3

Structure (SMILES): CN(C)C(=O)c1ccc(C(=C2CCN(Cc3cncs3)CC2)c2cccc(C(N)=O)c2)cc1 [Free base, 4-[(3-carbamoylphenyl)[1-(1,3-thiazol-5-ylmethyl)piperidin-4-ylidene]methyl]-N,N-dimethylbenzamide]
- solubility in water [6]: < 1000 µg/mL
- bioavailability ([1]; oral 3 mg/kg): 8%
